Laboratory results: patent publication EP4603105A1, “PHARMACEUTICAL COMPOSITION CONTAINING CYCLIC COMPOUND HAVING SELECTIVE KRAS INHIBITORY EFFECT AGAINST HRAS AND NRAS” (CHUGAI SEIYAKU KABUSHIKI KAISHA, priority 2022, dated 2024)
Where a SMILES comes first, the peptide text is derived from it. Bridges are numbered along the chain shown (N, C = ends). [ ]: non-standard residue; d: D form. The star is where a group is joined. hPhe(3-Cl-4-CF3) = N[C@@H](CCc1ccc(C(F)(F)F)c(Cl)c1)C(=O)O; NPrPhe(4-CF3) = CCCN[C@@H](Cc1ccc(C(F)(F)F)cc1)C(=O)O; NMePhe(4-Me) = CN[C@@H](Cc1ccc(C)cc1)C(=O)O; NMeGly(cPent) = CN[C@H](C(=O)O)C1CCCC1; Pro(4,4-F2) = O=C(O)[C@@H]1CC(F)(F)CN1; NMeD = CN[C@@H](CC(=O)O)C(=O)O; NMeL = CN[C@@H](CC(C)C)C(=O)O; NMeAbu = CC[C@H](NC)C(=O)O; Morpholide = C1CN(*)CCO1; Ac5c = NC1(C(=O)O)CCCC1; Sar = CNCC(=O)O

Assays:
[1] = target: GDP-bound NRAS wild-type protein (Homo sapiens, UniProt P01111); assay: Binding to NRAS by surface plasmon resonance (SPR), KD and KD ratio to KRAS
In short: (§1)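 Biotinylated GDP-bound RAS was captured at about 100–300 RU. Running buffer: HBS pH 7.4, 10 mM MgCl2, 10 µM GDP, 1 mM DTT, 0.01% Tween 20, 4% DMSO.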

HRAS wild-type protein = HRAS wild-type protein (Homo sapiens, UniProt P01112); assay: Binding to HRAS by surface plasmon resonance (SPR), KD and KD ratio to KRAS
In short: as §1

[2] = tested on: human lung cancer strain NCI-H441; assay type: cell-based
In short: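 Step one: dispense the test compound in serial DMSO dilutions. Step three: add the reagent and measure […].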

[3] = ratio of KD for GDP-bound NRAS wild-type protein to KD for KRAS
[4] = ratio of KD for HRAS wild-type protein to KD for KRAS
[5] = ratio of the KD value with respect to GDP-bound NRAS wild-type protein to the KD value with respect to KRAS
[6] = ratio of the KD value with respect to HRAS wild-type protein to the KD value with respect to KRAS
[7] = ratio of KD value for GDP-bound NRAS wild-type protein to KD value for KRAS (SPR)
[8] = ratio of KD value for HRAS wild-type protein to KD value for KRAS (SPR)

Sequence of GDP-bound NRAS wild-type protein (P01111 whole entry): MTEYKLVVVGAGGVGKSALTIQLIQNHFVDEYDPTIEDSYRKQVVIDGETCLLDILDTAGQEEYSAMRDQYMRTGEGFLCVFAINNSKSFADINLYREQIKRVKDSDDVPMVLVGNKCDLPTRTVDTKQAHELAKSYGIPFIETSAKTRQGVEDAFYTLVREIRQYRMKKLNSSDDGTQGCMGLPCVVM
Sequence of HRAS wild-type protein (P01112 whole entry): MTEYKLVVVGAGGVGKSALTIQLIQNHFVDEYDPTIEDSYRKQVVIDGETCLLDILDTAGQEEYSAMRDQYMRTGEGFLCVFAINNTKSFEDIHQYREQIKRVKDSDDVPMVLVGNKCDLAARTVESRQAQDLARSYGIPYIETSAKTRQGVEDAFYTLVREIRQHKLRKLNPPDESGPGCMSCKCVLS

Row | IC50 [2] [nM] | SMILES | NRAS /KRAS [1, 3] | HRAS /KRAS (HRAS wild-type protein; [4]) | NRAS /KRAS [1, 5] | HRAS /KRAS (HRAS wild-type protein; [6]) | NRAS /KRAS [1, 7] | HRAS /KRAS (HRAS wild-type protein; [8])
1 | 3.9 | CCCN1C(=O)CN(C)C(=O)CN(C)C(=O)[C@H]([C@@H](C)CC)NC(=O)[C@H](CC)N(C)C(=O)C[C@@H](C(=O)N2CCOCC2)N(C)C(=O)[C@H](C2CCCC2)N(C)C(=O)C2(CCCC2)NC(=O)[C@@H]2CC(F)(F)CN2C(=O)[C@H](CCc2ccc(C(F)(F)F)c(Cl)c2)NC(=O)CN(C)C(=O)[C@@H]1Cc1ccc(C(F)(F)F)cc1 [PP0202] ([NMeAbu]I[Sar][Sar][NPrPhe(4-CF3)][Sar][hPhe(3-Cl-4-CF3)][Pro(4,4-F2)][Ac5c][NMeGly(cPent)][NMeD]-Morpholide; lactam N-11) | B (a compound having 3 or more and less than 10 is denoted as B) | C (A compound having a KD ratio of 0.1 or more and less than 3 is denoted as C) |  |  |  | 
2 | 85.2 | CCO[C@@H]1C[C@H]2C(=O)NC3(CC=CC3)C(=O)N(C)[C@@H](C3CCCC3)C(=O)N(C)[C@H](C(=O)N3CCOCC3)CC(=O)N(C)[C@@H](CC(C)C)C(=O)N[C@@H]([C@@H](C)CC)C(=O)N(C)CC(=O)N(C)[C@H]3CCCCCN(C3=O)[C@@H](Cc3ccc(C(F)(F)F)cc3)C(=O)N(C)CC(=O)N[C@@H](CCc3cc(F)c(C(F)(F)F)c(F)c3)C(=O)N2C1 [PP0727] |  |  | B (a compound having 3 or more and less than 10 is denoted as B) | B (a compound having 3 or more and less than 10 is denoted as B) |  | 
3 | 3.1 | CCCN1C(=O)CN(C)C(=O)CN(C)C(=O)[C@H]([C@@H](C)CC)NC(=O)[C@@H]2CCCCCCOc3ccc(cc3)C[C@H]1C(=O)N(C)CC(=O)N[C@@H](CCc1cc(F)c(C(F)(F)F)c(F)c1)C(=O)N1C[C@H](OCC)C[C@H]1C(=O)NC1(CCCC1)C(=O)N(C)[C@@H](C1CCCC1)C(=O)N(C)[C@H](C(=O)N(C)C)CC(=O)N2C [PP0896] | C (A compound having a KD ratio of 0.1 or more and less than 3 is denoted as C) | C (A compound having a KD ratio of 0.1 or more and less than 3 is denoted as C) |  |  |  | 
4 | 7 | CC[C@H](C)[C@@H]1NC(=O)[C@H](CC(C)C)N(C)C(=O)C[C@@H](C(=O)N2CCOCC2)N(C)C(=O)[C@H](C2CCCC2)N(C)C(=O)C2(CCCC2)NC(=O)[C@@H]2CCCN2C(=O)[C@H](CCc2ccc(C(F)(F)F)c(Cl)c2)NC(=O)CN(C)C(=O)[C@H](Cc2ccc(C)cc2)N(C)C(=O)CN(C)C(=O)CN(C)C1=O [PP0018] ([NMeL]I[Sar][Sar][NMePhe(4-Me)][Sar][hPhe(3-Cl-4-CF3)]P[Ac5c][NMeGly(cPent)][NMeD]-Morpholide; lactam N-11) | C (A compound having a KD ratio of 0.1 or more and less than 3 is denoted as C) | C (A compound having a KD ratio of 0.1 or more and less than 3 is denoted as C) |  |  |  | 
5 | 11.7 | CC[C@H](C)[C@@H]1NC(=O)[C@H](CC(F)F)N(C)C(=O)C[C@@H](C(=O)N(C)CC)N(C)C(=O)[C@H](C2CCCC2)N(C)C(=O)C2(CC(C)(C)C2)NC(=O)[C@@H]2C[C@H](C)CN2C(=O)[C@H](CCc2ccc(C(F)(F)F)c(Cl)c2)NC(=O)CN(C)C(=O)[C@H](Cc2ccc(C)cc2)N2CC/C=C\C[C@@H](C2=O)N(C)C(=O)CN(C)C1=O [PP1911] |  |  | A (a compound having 10 or more and less than 20 is denoted as A) | A (a compound having 10 or more and less than 20 is denoted as A) |  | 
6 | 8.6 | CCO[C@@H]1C[C@H]2C(=O)NC3(CC(C)(C)C3)C(=O)N(C)[C@@H](CC(C)(C)C)C(=O)N(C)[C@H](C(=O)N(C)C)CC(=O)N(C)[C@@H](C(C)C)C(=O)N[C@@H]([C@@H](C)CC)C(=O)N(C)CC(=O)N(C)[C@H]3C/C=C\CCN(C3=O)[C@@H](Cc3ccc(C(F)(F)F)cc3)C(=O)N(C)CC(=O)N[C@@H](CCc3ccc(C(F)(F)F)c(OC)c3)C(=O)N2C1 [PP2773] | B (a compound having 3 or more and less than 10 is denoted as B) | B (a compound having 3 or more and less than 10 is denoted as B) |  |  |  | 
7 | 88.8 | CC[C@H](C)[C@@H]1NC(=O)[C@H](CC2CC2)N(C)C(=O)C[C@@H](C(=O)N(C)C)N(C)C(=O)[C@H](C2CCCC2)N(C)C(=O)C2(CCC2)NC(=O)[C@@H]2C[C@@H](C)CN2C(=O)[C@H](CCc2ccc(C(F)(F)F)c(OC)c2)NC(=O)CN(C)C(=O)[C@H](Cc2ccc(C)cc2)N2CC/C=C\C[C@@H](C2=O)N(C)C(=O)CN(C)C1=O [PP1863] |  |  |  |  | A (a compound having 10 or more and less than 20 is denoted as A) | A (a compound having 10 or more and less than 20 is denoted as A)
8 | 163 | CCCN1C(=O)CN(C)C(=O)CNC(=O)[C@H]([C@@H](C)CC)NC(=O)[C@H](CC(C)C)N(C)C(=O)C[C@@H](C(=O)N2CCOCC2)NC(=O)[C@H](C2CCCC2)N(C)C(=O)C2(CCCC2)NC(=O)[C@@H]2CCCN2C(=O)[C@H](CCc2ccc(C(F)(F)F)c(Cl)c2)NC(=O)CN(C)C(=O)[C@@H]1Cc1ccc(C(F)(F)F)cc1 [PP0325] ([NMeL]IG[Sar][NPrPhe(4-CF3)][Sar][hPhe(3-Cl-4-CF3)]P[Ac5c][NMeGly(cPent)]D-Morpholide; lactam N-11) | B (a compound having 3 or more and less than 10 is denoted as B) | B (a compound having 3 or more and less than 10 is denoted as B) |  |  |  | 
9 | 6.5 | CCO[C@@H]1C[C@H]2C(=O)NC3(CCCC3)C(=O)N(C)[C@@H](C3CCCC3)C(=O)N(C)[C@H](C(=O)N(C)CC)CC(=O)N(C)[C@@H](CC(C)C)C(=O)N[C@@H]([C@@H](C)CC)C(=O)N(C)CC(=O)N(C)[C@H]3C/C=C\CCN(C3=O)[C@@H](Cc3ccc(C(F)(F)F)cc3)C(=O)N(C)CC(=O)N[C@@H](CCc3cc(F)c(C(F)(F)F)c(F)c3)C(=O)N2C1 [PP1574] |  |  |  |  | A (a compound having 10 or more and less than 20 is denoted as A) | A (a compound having 10 or more and less than 20 is denoted as A)
10 | 35.7 | CCO[C@@H]1C[C@H]2C(=O)NC3(CCC3)C(=O)N(C)[C@@H](C3CCCC3)C(=O)N(C)[C@H](C(=O)N3CCOCC3)CC(=O)N(C)[C@@H](COC)C(=O)N[C@@H]([C@@H](C)CC)C(=O)N(C)CC(=O)N(C)[C@H]3CCCCCN(C3=O)[C@@H](Cc3ccc(C(F)(F)F)cc3)C(=O)N(C)CC(=O)N[C@@H](CCc3ccc(C(F)(F)F)c(Cl)c3)C(=O)N2C1 [PP0849] | B (a compound having 3 or more and less than 10 is denoted as B) | B (a compound having 3 or more and less than 10 is denoted as B) |  |  |  | 
11 | 5.1 | CCCN(C)C(=O)[C@@H]1CC(=O)N(C)[C@@H](COC)C(=O)N[C@@H]([C@@H](C)CC)C(=O)N(C)CC(=O)N(C)[C@H]2C/C=C\CCN(C2=O)[C@@H](Cc2ccc(C(F)(F)F)cc2)C(=O)N(C)CC(=O)N[C@@H](CCc2cc(F)c(C(F)(F)F)c(F)c2)C(=O)N2C[C@H](OCC)C[C@H]2C(=O)NC2(CC(F)(F)C2)C(=O)N(C)[C@@H](C2CCCC2)C(=O)N1C [PP1743] |  |  |  |  | AA (a compound having 20 or more is denoted as AA) | A (a compound having 10 or more and less than 20 is denoted as A)
12 | 12.1 | CCO[C@@H]1C[C@H]2C(=O)NC3(CCC3)C(=O)N(C)[C@@H](C3CCCC3)C(=O)N(C)[C@H](C(=O)N(C)CC)CC(=O)N(C)[C@@H](CC)C(=O)N[C@@H]([C@@H](C)CC)C(=O)N(C)CC(=O)N(C)[C@H]3C/C=C\CCN(C3=O)[C@@H](CC3CCC(F)(F)CC3)C(=O)N(C)CC(=O)N[C@@H](CCc3cc(F)c(C(F)(F)F)c(F)c3)C(=O)N2C1 [PP1553] |  |  |  |  | A (a compound having 10 or more and less than 20 is denoted as A) | A (a compound having 10 or more and less than 20 is denoted as A)
